According to patent US9988348B1, “Synthesis and antimicrobial use of a trithiocarbonate derivative” (KING SAUD UNIVERSITY, priority 2017, dated 2018):
Marks after values point to notes of the source that are not given here.

How the values were obtained:
[1] = system: Neisseria meningitides ATCC 1302; assay: disk diffusion assay, inhibition zone; assay type: cell-based; settings: N. meningitides
[2] = system: MCF-7 human breast cancer cell lines; assay: in vitro anti-cancer test; assay type: cell-based; settings: water soluble form, 4 to 0.008 mg/mL
Method: Biological activity of compound 4 (water soluble form) as anticancer in human breast cancer was evaluated according to (Kumar et al. 2014). Roswell Park Memorial Institute (RPMI)-1640 medium (Sigma, USA) were prepared according to manufacturer's guidelines and supplemented fetal bovine serum (10%). To avoid a microbial contamination, a streptomycin and penicillin were added to RPMI-1640. Several concentrations ranging from 4 to 0.008 mg/mL of compound 4 were tested.

[3] = biological effects of compound 4 alone in mice (not infected);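 on daily body weight: compound given twice daily to the uninfected group for 2 weeks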; assay type: in vivo; design: Total Protein Mean ± SE: unit not given here; settings: for daily body weight / % change in daily body weight / Food consumption / Mortality / Water consumption: i.v. 12 mg/kg then 6 mg/ml
Method: The experiment was performed in Experimental Animal Care Center (EACC), College of Pharmacy, King Saud University, Riyadh. Fifty Albino male mice, weighing nearly 30±2 gram were used. The mice were arranged in five groups, each including ten mice caged together, given water, and feed ad libitum. […] The group treated with standard drug (fluconazole) was infected intravenously with 0.2 ml of C. albicans suspension (10^6 CFU/mouse) and treated (orally) by 12 mg/kg of fluconazole (loading dose) on the first day followed by 6 mg/ml for 2 weeks.
The biological parameters included daily body weight (gm), mortality (%), food consumption (g/day/mouse), water consumption (ml/day/mouse), serum glutamic oxaloacetic transaminase [SGOT(AST) (U/L)], serum glutamic-pyruvic transaminase [SGPT(ALT)(U/L)], alkaline phosphatase (U/L), gamma-glutamyl transferase (GGT) (U/L), bilirubin (mg/dl)], cholesterol (mg/dl), triglycerides (mg/dl), high-density lipoprotein (HDL) (mg/dl), very-low-density lipoprotein (VLDL) (mg/dl), low-density lipoprotein (LDL) (mg/dl), lactate dehydrogenase (LDH) (U/L), glucose (mg/dl), total protein (mg/dl), malondialdehyde (MDA) (nmol/g), nonprotein sulfyhydryl (NP-SH) (nmol/g). […] SGOT (AST), SGPT (ALT), ALP, GGT, bilirubin LDH and total protein were estimated using Reflotron Plus Analyzer and Roche kits (Roche Diagnostics GmbH, Mannheim Germany) and United diagnostic kits assay. Hematological tests were performed by Mindray BC-2800VET auto Hematology Analyzer.

[4] = blood, uninfected mice, i.v. 12 mg/kg then 6 mg/ml for 2 weeks
[5] = liver tissue, uninfected mice, i.v. 12 mg/kg then 6 mg/ml for 2 weeks
[6] = serum, uninfected mice, i.v. 12 mg/kg then 6 mg/ml for 2 weeks

SMILES: CCOC(=O)CSC(=S)SCC(=O)OCC [Compound 4, diethyl 2,2′-(thiocarbonylbis(sulfanediyl))diacetate]
- biological activity, in words [1]: very good
- Inhibition zone diameter ([1]; 4 mg/disk, soluble water compound 4): 22.6 ± 0.5 C mm
- biological activity as anticancer [2]: no biological activity
- Eosinophils Mean ± SE [3, 4]: 2.38 ± 0.09%
- HCT Mean ± SE [3, 4]: 45.9 ± 1.51^a
- HGB Mean ± SE [3, 4]: 12.4 ± 0.18^a g/dL
- Lymphocytes Mean ± SE [3, 4]: 4.8 ± 0.09%
- MCH Mean ± SE [3, 4]: 39.0 ± 1.0 pg
- MCHC Mean ± SE [3, 4]: 32.6 ± 0.9 g/dL
- MCV Mean ± SE [3, 4]: 87.31 ± 1.74 fL
- Monocytes Mean ± SE [3, 4]: 1.15 ± 0.01%
- Neutrophils Mean ± SE [3, 4]: 33.3 ± 1.1%
- PLT Mean ± SE [3, 4]: 670.7 ± 15.3 10^3/mm^3
- RBC Mean ± SE [3, 4]: 9.26 ± 0.1 10^6/mm^3
- WBC Mean ± SE [3, 4]: 8795 ± 45.9 Cell/mm^3
- MDA [3, 5]: 0.94 ± 0.03***^a nmol/g
- NP-SH [3, 5]: 6.88 ± 0.22***^a nmol/g
- Total Protein [3, 5]: 129.04 ± 2.80**^a g/l
- side effects on food and water consumption comparing with control group ([3]; mice): no negative side effects
- Alkaline phosphatase Mean ± SE ([3]; serum, uninfected mice, 12 mg/kg then 6 mg/ml for 2 weeks): 286.62 ± 4.67^a U/L
- Bilirubin Mean ± SE [3, 6]: 0.57 ± 0.017^a mg/dl
- Cholesterol Mean ± SE [3, 6]: 78.68 ± 3.2 mg/dL
- GGT Mean ± SE [3, 6]: 4.40 ± 0.13^a U/L
- Glucose level Mean ± SE [3, 6]: 96.38 ± 3.62**^a mg/dl
- HDL Mean ± SE [3, 6]: 41.6 ± 2.1^a mg/dl
- LDH Mean ± SE [3, 6]: 162.50 ± 1.84^a U/L
- LDL Mean ± SE [3, 6]: 23.3 ± 3.0 mg/dL
- SGOT(AST) Mean ± SE [3, 6]: 89.07 ± 3.82 U/L
- SGPT(ALT) Mean ± SE [3, 6]: 28.67 ± 1.15^a U/L
- Total Protein Mean ± SE [3, 6]: 7.66 ± 0.18
- Triglycerides Mean ± SE [3, 6]: 68.5 ± 1.6 mg/dL
- VLDL Mean ± SE [3, 6]: 13.7 ± 0.3 mg/dL
- mortality in the group treated only with the compound, in words ([3]; uninfected mice): close to the control group
- daily body weight ([3]; uninfected mice, day 0): 20.20 ± 0.38 gm
- % change in daily body weight ([3]; uninfected mice, day 1): 0.49%
- Food consumption ([3]; uninfected mice, day 1): 4.2 g/day/mice
- Mortality ([3]; uninfected mice, day 1): 0%
- Water consumption ([3]; uninfected mice, day 1): 5.2 g/day/mice
- daily body weight ([3]; uninfected mice, day 1): 20.30 ± 0.36 gm
- % change in daily body weight ([3]; uninfected mice, day 2): 9.40%
- Food consumption ([3]; uninfected mice, day 2): 4.5 g/day/mice
- Mortality ([3]; uninfected mice, day 2): 0%
- Water consumption ([3]; uninfected mice, day 2): 5.2 g/day/mice
- daily body weight ([3]; uninfected mice, day 2): 22.10 ± 0.23 gm
- % change in daily body weight ([3]; uninfected mice, day 3): 16.83%
- Food consumption ([3]; uninfected mice, day 3): 4.4 g/day/mice
- Mortality ([3]; uninfected mice, day 3): 0%
- Water consumption ([3]; uninfected mice, day 3): 5.4 g/day/mice
- daily body weight ([3]; uninfected mice, day 3): 23.60 ± 0.33 gm
- % change in daily body weight ([3]; uninfected mice, day 4): 19.80%
- Food consumption ([3]; uninfected mice, day 4): 4.5 g/day/mice
- Mortality ([3]; uninfected mice, day 4): 0%
- Water consumption ([3]; uninfected mice, day 4): 5.5 g/day/mice
- daily body weight ([3]; uninfected mice, day 4): 24.20 ± 0.20 gm
- % change in daily body weight ([3]; uninfected mice, day 5): 23.26%
- Food consumption ([3]; uninfected mice, day 5): 4.6 g/day/mice
- Mortality ([3]; uninfected mice, day 5): 0%
- Water consumption ([3]; uninfected mice, day 5): 5.5 g/day/mice
- daily body weight ([3]; uninfected mice, day 5): 24.90 ± 0.23 gm
- % change in daily body weight ([3]; uninfected mice, day 6): 27.22%
- Food consumption ([3]; uninfected mice, day 6): 4.6 g/day/mice
- Mortality ([3]; uninfected mice, day 6): 0%
- Water consumption ([3]; uninfected mice, day 6): 5.7 g/day/mice
- daily body weight ([3]; uninfected mice, day 6): 25.70 ± 0.21 gm
- % change in daily body weight ([3]; uninfected mice, day 7): 29.70%
- Food consumption ([3]; uninfected mice, day 7): 4.8 g/day/mice
- Mortality ([3]; uninfected mice, day 7): 0%
- Water consumption ([3]; uninfected mice, day 7): 5.8 g/day/mice
- daily body weight ([3]; uninfected mice, day 7): 26.20 ± 0.24 gm
- % change in daily body weight ([3]; uninfected mice, day 8): 32.17%
- Food consumption ([3]; uninfected mice, day 8): 4.9 g/day/mice
- Mortality ([3]; uninfected mice, day 8): 0%
- Water consumption ([3]; uninfected mice, day 8): 5.8 g/day/mice
- daily body weight ([3]; uninfected mice, day 8): 26.70 ± 0.26 gm
- % change in daily body weight ([3]; uninfected mice, day 9): 32.67%
- Food consumption ([3]; uninfected mice, day 9): 4.9 g/day/mice
- Mortality ([3]; uninfected mice, day 9): 0%
- Water consumption ([3]; uninfected mice, day 9): 5.9 g/day/mice
- daily body weight ([3]; uninfected mice, day 9): 26.80 ± 0.29 gm
- % change in daily body weight ([3]; uninfected mice, day 10): 33.66%
- Food consumption ([3]; uninfected mice, day 10): 5.1 g/day/mice
- Mortality ([3]; uninfected mice, day 10): 0%
- Water consumption ([3]; uninfected mice, day 10): 5.9 g/day/mice
- daily body weight ([3]; uninfected mice, day 10): 27.00 ± 0.27 gm
- % change in daily body weight ([3]; uninfected mice, day 11): 35.64%
- Food consumption ([3]; uninfected mice, day 11): 5.2 g/day/mice
- Mortality ([3]; uninfected mice, day 11): 0%
- Water consumption ([3]; uninfected mice, day 11): 6.0 g/day/mice
- daily body weight ([3]; uninfected mice, day 11): 27.40 ± 0.35 gm
- % change in daily body weight ([3]; uninfected mice, day 12): 36.96%
- Food consumption ([3]; uninfected mice, day 12): 6.0 g/day/mice
- Mortality ([3]; uninfected mice, day 12): 0%
- Water consumption ([3]; uninfected mice, day 12): 6.11 g/day/mice
- daily body weight ([3]; uninfected mice, day 12): 27.66 ± 0.28 gm
- % change in daily body weight ([3]; uninfected mice, day 13): 35.51%
- Food consumption ([3]; uninfected mice, day 13): 6.0 g/day/mice
- Mortality ([3]; uninfected mice, day 13): 10%
- Water consumption ([3]; uninfected mice, day 13): 6.2 g/day/mice
- daily body weight ([3]; uninfected mice, day 13): 27.77 ± 0.27 gm
- % change in daily body weight ([3]; uninfected mice, day 14): 38.61%
- Food consumption ([3]; uninfected mice, day 14): 6.1 g/day/mice
- Mortality ([3]; uninfected mice, day 14): 10%
- Water consumption ([3]; uninfected mice, day 14): 6.2 g/day/mice
- daily body weight ([3]; uninfected mice, day 14): 28.00 ± 0.37 gm
- % change in daily body weight ([3]; uninfected mice, day 15): 41.70%
- Food consumption ([3]; uninfected mice, day 15): 6.1 g/day/mice
- Mortality ([3]; uninfected mice, day 15): 10%
- Water consumption ([3]; uninfected mice, day 15): 6.3 g/day/mice
- daily body weight ([3]; uninfected mice, day 15): 28.62 ± 0.41 gm
